Data reported in US20100298141A1, “SUBSTITUTED PYRIDINE N-OXIDE HERBICIDES” (E. I. DU PONT DE NEMOURS AND COMPANY, priority 2007, published 2010).

What was measured:
[1] = tested on: crabgrass; test: Test A pre-/postemergence greenhouse test; type: in vivo, Digitaria sanguinalis; settings: for Plant response rating, Crabgrass, Large: 0 to 100 scale where 0 is no effect and 100 is complete control; for Crabgrass, Large plant response rating: 0 to 100 scale
Method in brief: (§1)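 Visual injury ratings, made relative to untreated controls roughly ten days after treatment, cover both preemergence and postemergence application. Compounds in a surfactant-containing non-phytotoxic solvent were sprayed onto the soil surface after sowing and, simultaneously, onto young plants at the one- to two-leaf stage.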

[2] = tested on: giant foxtail; test: Test A pre-/postemergence greenhouse test; type: in vivo, Setaria faberi; settings: for Plant response rating, Foxtail, Giant: 0 to 100 scale where 0 is no effect and 100 is complete control; for Foxtail, Giant plant response rating: 0 to 100 scale
Method in brief: as §1

[3] = tested on: morningglory; test: Test A pre-/postemergence greenhouse test; type: in vivo, Ipomoea spp.; settings: for Plant response rating, Morningglory: 0 to 100 scale where 0 is no effect and 100 is complete control; for Morningglory plant response rating: 0 to 100 scale
Method in brief: as §1

[4] = tested on: wheat; test: Test A pre-/postemergence greenhouse test; type: in vivo, Triticum aestivum; settings: for Plant response rating, Wheat: 0 to 100 scale where 0 is no effect and 100 is complete control; for Wheat plant response rating: 0 to 100 scale
Method in brief: as §1

[5] = tested on: downy brome; test: Test C pre-/postemergence test; type: in vivo, Bromus tectorum
Method in brief: (§2)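 Seeds were planted and treated preemergence with test chemical in a non-phytotoxic solvent mixture containing surfactant. Postemergence applications of the same formulation went onto plants 2 to 18 cm tall (1- to 4-leaf stage). A dash marks no test result.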

[6] = tested on: cocklebur; test: Test C pre-/postemergence test; type: in vivo, Xanthium strumarium
Method in brief: as §2

[7] = tested on: corn; test: Test C pre-/postemergence test; type: in vivo, Zea mays
Method in brief: as §2

[8] = tested on: woolly cupgrass; test: Test C pre-/postemergence test; type: in vivo, Eriochloa villosa
Method in brief: as §2

[9] = tested on: giant foxtail; test: Test C pre-/postemergence test; type: in vivo, Setaria faberii
Method in brief: as §2

[10] = tested on: Goosegrass; test: Test C pre-/postemergence test; type: in vivo, Eleusin indica
Method in brief: as §2

[11] = tested on: johnsongrass; test: Test C pre-/postemergence test; type: in vivo, Sorghum halepense
Method in brief: as §2

[12] = tested on: lambsquarters; test: Test C pre-/postemergence test; type: in vivo, Chenopodium album
Method in brief: as §2

[13] = tested on: morningglory; test: Test C pre-/postemergence test; type: in vivo, Ipomoea coccinea
Method in brief: as §2

[14] = tested on: yellow nutsedge; test: Test C pre-/postemergence test; type: in vivo, Cyperus esculentus
Method in brief: as §2

[15] = tested on: common ragweed; test: Test C pre-/postemergence test; type: in vivo, Ambrosia elation
Method in brief: as §2

[16] = tested on: soybean; test: Test C pre-/postemergence test; type: in vivo, Glycine max
Method in brief: as §2

[17] = tested on: umbrella sedge; test: Test C flooded paddy test; type: in vivo, Cyperus difformis; settings: Flood
Method in brief: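 In-water treatment: compound dosed into 3 cm flood over soil, water level unchanged throughout. Controls run alongside; visual assessment at day 13–15.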

[18] = Postemergence, 500 g ai/ha, 0 is no effect, 100 is complete control
[19] = Preemergence, 125 g ai/ha, 0 no effect, 100 complete control
[20] = 62 g ai/ha, Preemergence, scale 0 to 100
[21] = 125 g ai/ha, preemergence, scale 0 (no effect) to 100 (complete control)
[22] = Postemergence, 62 g ai/ha, scale 0 to 100, 0 no effect, 100 complete control
[23] = Postemergence, 125 g ai/ha, scale 0 to 100, 0 no effect, 100 complete control
[24] = Postemergence, 250 g ai/ha, scale 0 to 100, 0 no effect, 100 complete control
[25] = Preemergence, 31 g ai/ha, scale 0 to 100 (0 no effect, 100 complete control)
[26] = preemergence, 250 g ai/ha, scale 0 (no effect) to 100 (complete control)
[27] = 250 g ai/ha, scale 0 to 100, 0 no effect, 100 complete control, 13 to 15 days

CCn1nc(C(F)(F)F)c(CS(=O)(=O)c2cc(C)cc[n+]2[O-])c1OCC(F)(F)F [Compound 64]
Plant response rating, Crabgrass, Large ([1]; Postemergence, 125 g ai/ha): 80
Crabgrass, Large plant response rating [1, 18]: 90
Crabgrass, Large plant response rating [1, 19]: 80
Plant response rating, Crabgrass, Large ([1]; Preemergence, 500 g ai/ha): 100
Plant response rating, Foxtail, Giant ([2]; Postemergence, 125 g ai/ha): 80
Foxtail, Giant plant response rating [2, 18]: 90
Foxtail, Giant plant response rating [2, 19]: 100
Plant response rating, Foxtail, Giant ([2]; Preemergence, 500 g ai/ha): 100
Plant response rating, Morningglory ([3]; Postemergence, 125 g ai/ha): 30
Morningglory plant response rating [3, 18]: 60
Morningglory plant response rating [3, 19]: 30
Plant response rating, Morningglory ([3]; Preemergence, 500 g ai/ha): 80
Plant response rating, Wheat ([4]; Postemergence, 125 g ai/ha): 50
Wheat plant response rating [4, 18]: 60
Wheat plant response rating [4, 19]: 40
Plant response rating, Wheat ([4]; Preemergence, 500 g ai/ha): 70
Bromegrass, Downy plant response rating [5, 20]: 30
Bromegrass, Downy plant response rating [5, 21]: 85
Plant response rating (0 to 100), Bromegrass, Downy ([5]; Postemergence, 31 g ai/ha): 0
Plant response rating, Bromegrass, Downy [5, 22]: 0
Plant response rating, Bromegrass, Downy [5, 23]: 10
Plant response rating, Bromegrass, Downy [5, 24]: 20
Plant response rating, Bromegrass, Downy [5, 25]: 30
Bromegrass, Downy plant response rating [5, 26]: 100
Cocklebur plant response rating [6, 20]: 0
Cocklebur plant response rating [6, 21]: 0
Plant response rating (0 to 100), Cocklebur ([6]; Postemergence, 31 g ai/ha): 0
Plant response rating, Cocklebur [6, 22]: 0
Plant response rating, Cocklebur [6, 23]: 0
Plant response rating, Cocklebur [6, 24]: 0
Corn plant response rating [7, 20]: 95
Corn plant response rating [7, 21]: 95
Plant response rating (0 to 100), Corn ([7]; Postemergence, 31 g ai/ha): 0
Plant response rating, Corn [7, 22]: 0
Plant response rating, Corn [7, 23]: 0
Plant response rating, Corn [7, 24]: 0
Plant response rating, Corn [7, 25]: 0
Corn plant response rating [7, 26]: 95
Cupgrass, Woolly plant response rating [8, 20]: 100
Cupgrass, Woolly plant response rating [8, 21]: 100
Plant response rating (0 to 100), Cupgrass, Woolly ([8]; Postemergence, 31 g ai/ha): 0
Plant response rating, Cupgrass, Woolly [8, 22]: 0
Plant response rating, Cupgrass, Woolly [8, 23]: 0
Plant response rating, Cupgrass, Woolly [8, 24]: 50
Plant response rating, Cupgrass, Woolly [8, 25]: 60
Cupgrass, Woolly plant response rating [8, 26]: 100
Foxtail, Giant plant response rating [9, 20]: 100
Foxtail, Giant plant response rating [9, 21]: 100
Plant response rating (0 to 100), Foxtail, Giant ([9]; Postemergence, 31 g ai/ha): 0
Plant response rating, Foxtail, Giant [9, 22]: 0
Plant response rating, Foxtail, Giant [9, 23]: 0
Plant response rating, Foxtail, Giant [9, 24]: 45
Plant response rating, Foxtail, Giant [9, 25]: 85
Foxtail, Giant plant response rating [9, 26]: 100
Goosegrass plant response rating [10, 20]: 100
Goosegrass plant response rating [10, 21]: 100
Plant response rating (0 to 100), Goosegrass ([10]; Postemergence, 31 g ai/ha): 0
Plant response rating, Goosegrass [10, 22]: 0
Plant response rating, Goosegrass [10, 23]: 0
Plant response rating, Goosegrass [10, 24]: 55
Plant response rating, Goosegrass [10, 25]: 95
Goosegrass plant response rating [10, 26]: 100
Johnsongrass plant response rating [11, 20]: 98
Johnsongrass plant response rating [11, 21]: 100
Plant response rating (0 to 100), Johnsongrass ([11]; Postemergence, 31 g ai/ha): 0
Plant response rating, Johnsongrass [11, 22]: 0
Plant response rating, Johnsongrass [11, 23]: 0
Plant response rating, Johnsongrass [11, 24]: 0
Plant response rating, Johnsongrass [11, 25]: 55
Johnsongrass plant response rating [11, 26]: 100
Plant response rating (0 to 100), Lambsquarters ([12]; Postemergence, 31 g ai/ha): 0
Plant response rating, Lambsquarters [12, 22]: 0
Plant response rating, Lambsquarters [12, 23]: 0
Plant response rating, Lambsquarters [12, 24]: 0
Morningglory plant response rating [13, 20]: 50
Morningglory plant response rating [13, 21]: 55
Plant response rating (0 to 100), Morningglory ([13]; Postemergence, 31 g ai/ha): 0
Plant response rating, Morningglory [13, 22]: 0
Plant response rating, Morningglory [13, 23]: 0
Plant response rating, Morningglory [13, 24]: 0
Plant response rating, Morningglory [13, 25]: 0
Morningglory plant response rating [13, 26]: 80
Nutsedge, Yellow plant response rating [14, 20]: 98
Nutsedge, Yellow plant response rating [14, 21]: 98
Plant response rating (0 to 100), Nutsedge, Yellow ([14]; Postemergence, 31 g ai/ha): 0
Plant response rating, Nutsedge, Yellow [14, 22]: 0
Plant response rating, Nutsedge, Yellow [14, 23]: 0
Plant response rating, Nutsedge, Yellow [14, 24]: 0
Plant response rating, Nutsedge, Yellow [14, 25]: 0
Nutsedge, Yellow plant response rating [14, 26]: 98
Ragweed plant response rating [15, 20]: 85
Ragweed plant response rating [15, 21]: 100
Plant response rating (0 to 100), Ragweed ([15]; Postemergence, 31 g ai/ha): 0
Plant response rating (0 to 100), Ragweed ([15]; Postemergence, 62 g ai/ha): 0
Plant response rating, Ragweed [15, 23]: 0
Plant response rating, Ragweed [15, 24]: 0
Ragweed plant response rating [15, 26]: 100
Soybean plant response rating [16, 20]: 20
Soybean plant response rating [16, 21]: 70
Plant response rating (0 to 100), Soybean ([16]; Postemergence, 31 g ai/ha): 25
Plant response rating (0 to 100), Soybean ([16]; Postemergence, 62 g ai/ha): 25
Plant response rating, Soybean [16, 23]: 30
Plant response rating, Soybean [16, 24]: 35
Plant response rating, Soybean [16, 25]: 0
Soybean plant response rating [16, 26]: 80
Plant response rating, Sedge, Umbrella ([17]; 62 g ai/ha, scale 0 to 100 (0 no effect, 100 complete control)): 80
Plant response rating, Sedge, Umbrella [17, 27]: 100

Cn1nc(C(F)(F)F)c(C[S+]([O-])c2ccc(F)c[n+]2[O-])c1Cl (stereo not shown) [Compound 54]
Plant response rating, Crabgrass, Large ([1]; Postemergence, 125 g ai/ha): 20
Crabgrass, Large plant response rating [1, 18]: 80
Crabgrass, Large plant response rating [1, 19]: 80
Plant response rating, Crabgrass, Large ([1]; Preemergence, 500 g ai/ha): 90
Plant response rating, Foxtail, Giant ([2]; Postemergence, 125 g ai/ha): 60
Foxtail, Giant plant response rating [2, 18]: 80
Foxtail, Giant plant response rating [2, 19]: 80
Plant response rating, Foxtail, Giant ([2]; Preemergence, 500 g ai/ha): 90
Plant response rating, Morningglory ([3]; Postemergence, 125 g ai/ha): 60
Morningglory plant response rating [3, 18]: 90
Morningglory plant response rating [3, 19]: 10
Plant response rating, Morningglory ([3]; Preemergence, 500 g ai/ha): 80
Plant response rating, Wheat ([4]; Postemergence, 125 g ai/ha): 30
Wheat plant response rating [4, 18]: 50
Wheat plant response rating [4, 19]: 10
Plant response rating, Wheat ([4]; Preemergence, 500 g ai/ha): 70
Bromegrass, Downy plant response rating [5, 20]: 0
Bromegrass, Downy plant response rating [5, 21]: 10
Plant response rating, Bromegrass, Downy [5, 25]: 0
Bromegrass, Downy plant response rating [5, 26]: 60
Cocklebur plant response rating [6, 20]: 0
Cocklebur plant response rating [6, 21]: 0
Plant response rating, Cocklebur [6, 25]: 0
Cocklebur plant response rating [6, 26]: 0
Corn plant response rating [7, 20]: 80
Corn plant response rating [7, 21]: 85
Plant response rating, Corn [7, 25]: 55
Corn plant response rating [7, 26]: 98
Cupgrass, Woolly plant response rating [8, 20]: 85
Cupgrass, Woolly plant response rating [8, 21]: 95
Plant response rating, Cupgrass, Woolly [8, 25]: 85
Cupgrass, Woolly plant response rating [8, 26]: 98
Foxtail, Giant plant response rating [9, 20]: 98
Foxtail, Giant plant response rating [9, 21]: 100
Plant response rating, Foxtail, Giant [9, 25]: 85
Foxtail, Giant plant response rating [9, 26]: 100
Goosegrass plant response rating [10, 20]: 100
Goosegrass plant response rating [10, 21]: 100
Plant response rating, Goosegrass [10, 25]: 95
Goosegrass plant response rating [10, 26]: 100
Johnsongrass plant response rating [11, 20]: 95
Johnsongrass plant response rating [11, 21]: 100
Plant response rating, Johnsongrass [11, 25]: 90
Johnsongrass plant response rating [11, 26]: 100
Lambsquarters plant response rating [12, 20]: 90
Lambsquarters plant response rating [12, 21]: 100
Plant response rating, Lambsquarters [12, 25]: 0
Lambsquarters plant response rating [12, 26]: 100
Morningglory plant response rating [13, 20]: 100
Morningglory plant response rating [13, 21]: 100
Plant response rating, Morningglory [13, 25]: 100
Morningglory plant response rating [13, 26]: 100
Nutsedge, Yellow plant response rating [14, 20]: 65
Nutsedge, Yellow plant response rating [14, 21]: 100
Plant response rating, Nutsedge, Yellow [14, 25]: 0
Nutsedge, Yellow plant response rating [14, 26]: 100
Ragweed plant response rating [15, 20]: 0
Ragweed plant response rating [15, 21]: 5
Plant response rating, Ragweed [15, 25]: 0
Ragweed plant response rating [15, 26]: 10
Plant response rating, Soybean [16, 25]: 0
Soybean plant response rating [16, 26]: 60
Plant response rating, Sedge, Umbrella ([17]; 31 g ai/ha, scale 0 to 100 (0 no effect, 100 complete control)): 0
Plant response rating, Sedge, Umbrella ([17]; 125 g ai/ha, scale 0 to 100, 0 no effect, 100 complete control, 13 to 15 days): 60
Plant response rating, Sedge, Umbrella [17, 27]: 100
